Measured values reported in PubChem BioAssay (NCI).
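The compound was tested at five concentrations on cells cultured in 96-well plates, with a 48-hour exposure period. The concentration for 50% growth inhibition is given as GI50. TGI: total growth inhibition.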

What was measured:
Experiment in all cases: NCI tumour cell line growth inhibition, 48 h
[1] = tested on: HCT-116 colon
[2] = tested on: HOP-62 NSCLC
[3] = tested on: NCI-H460 lung
[4] = tested on: SK-OV-3 ovarian
[5] = tested on: COLO 205 colon
[6] = tested on: MALME-3M melanoma
[7] = tested on: K-562 leukemia
[8] = tested on: DU-145 prostate
[9] = tested on: LOX IMVI melanoma
[10] = tested on: HOP-92 NSCLC

## C/C(=C\C(=O)O[C@H]1[C@@H]2[C@H](C)CC[C@H]2[C@]2(C)O[C@@]1(C1CCCCC1)C[C@H]2OC(=O)CO)c1ccccc1
[1]
  GI50: 6.18 µM
  TGI: 12 µM
[2]
  GI50: 7 µM
  TGI: 13 µM
[3]
  GI50: 6.86 µM
  TGI: 14.1 µM
[4]
  GI50: 7.15 µM
  TGI: 13.2 µM
[5]
  GI50: 7.61 µM
  TGI: 15 µM
[6]
  GI50: 7.25 µM
  TGI: 13.5 µM
[7]
  GI50: 7.82 µM
  TGI: 17.6 µM
[8]
  GI50: 7.01 µM
  TGI: 12.6 µM
[9]
  GI50: 6.97 µM
  TGI: 12.9 µM
[10]
  GI50: 2.07 µM
  TGI: 8.09 µM

## O=C1C2C3CC4C5C3C1C5C1(SCCS1)C42 (stereo unspecified)
[1]
  TGI: > 100 µM
[2]
  TGI: > 100 µM
[3]
  TGI: > 100 µM
[4]
  TGI: > 100 µM
[5]
  TGI: > 100 µM
[6]
  TGI: > 100 µM
[7]
  TGI: > 100 µM

## O=C(CCCc1ccc(N(CCCl)CCCl)cc1)NCc1ccccc1
[1]
  GI50: 4.57 µM
  TGI: 20.7 µM
[2]
  GI50: 8 µM
  TGI: 40.5 µM
[3]
  GI50: 2.81 µM
  TGI: 59.4 µM
[4]
  GI50: 7.15 µM
  TGI: 40.8 µM
[5]
  GI50: 13.5 µM
  TGI: 33 µM
[6]
  GI50: 13.2 µM
  TGI: 37.6 µM
[7]
  GI50: 7.43 µM
  TGI: 54.3 µM
[8]
  GI50: 5.04 µM
  TGI: 56.6 µM
[9]
  GI50: 5.37 µM
  TGI: 23.9 µM

## O=c1c2ccccc2nc(-c2cccc([N+](=O)[O-])c2)n1O
[1]
  TGI: > 100 µM
[2]
  TGI: > 100 µM
[3]
  TGI: > 100 µM
[4]
  TGI: > 100 µM
[5]
  TGI: > 100 µM
[6]
  TGI: > 100 µM
[8]
  TGI: > 100 µM
[9]
  TGI: > 100 µM
[10]
  TGI: > 75.1 µM

## CN(C)CCC(N)(P(=O)([O-])[O-])P(=O)([O-])[O-].N.N.[Pt+2]
[1]
  GI50: > 100 µM
  TGI: > 100 µM
[2]
  GI50: > 100 µM
  TGI: > 100 µM
[5]
  GI50: > 100 µM
  TGI: > 100 µM
[6]
  GI50: > 100 µM
  TGI: > 100 µM
[7]
  GI50: > 100 µM
  TGI: > 100 µM
[9]
  GI50: > 100 µM
  TGI: > 100 µM
[10]
  GI50: > 100 µM
  TGI: > 100 µM

## CC(=O)OC(C)(C)C1CC[C@]2(C)/C=C/C(C)C[C@@H](O)/C=C(\C)CC(O)C12 (stereo partly specified)
[1]
  TGI: > 100 µM
[2]
  TGI: > 100 µM
[3]
  TGI: > 100 µM
[4]
  TGI: > 100 µM
[5]
  TGI: > 100 µM
[6]
  TGI: > 100 µM
[7]
  TGI: > 100 µM
[9]
  TGI: > 100 µM
[10]
  TGI: > 100 µM

## C/C(CN1C(=O)c2ccccc2C1=O)=N\NS(=O)(=O)c1ccc2ccccc2c1
[1]
  TGI: > 100 µM
[2]
  TGI: > 100 µM
[3]
  TGI: > 100 µM
[4]
  TGI: > 100 µM
[5]
  TGI: > 100 µM
[6]
  TGI: > 100 µM
[7]
  TGI: > 100 µM
[9]
  TGI: > 100 µM

## NC1=C(O)c2cccc3cccc(c23)C1=O
[1]
  TGI: > 100 µM
[4]
  TGI: > 100 µM
[5]
  TGI: > 100 µM
[6]
  TGI: > 100 µM
[7]
  TGI: > 100 µM
[9]
  TGI: > 100 µM
[10]
  TGI: > 100 µM

## Cc1cc(N(CCC#N)CCC#N)ccc1/C=C(\NC(=O)/C=C/c1ccccc1)C(=O)N=[N+]=[N-]
[1]
  TGI: > 100 µM
[2]
  TGI: > 100 µM
[3]
  TGI: > 100 µM
[4]
  TGI: > 100 µM
[5]
  TGI: > 100 µM
[6]
  TGI: > 100 µM
[7]
  TGI: > 100 µM
[9]
  TGI: > 100 µM

## N#CC(C(=O)CCCC(=O)Nc1ccccc1[N+](=O)[O-])c1c(Cl)cccc1Cl (stereo unspecified)
[1]
  TGI: > 100 µM
[2]
  TGI: > 100 µM
[3]
  TGI: > 100 µM
[4]
  TGI: > 100 µM
[5]
  TGI: > 100 µM
[6]
  TGI: > 100 µM
[7]
  TGI: > 100 µM
[10]
  TGI: > 100 µM

## NC(N)NCCCc1cn2c(n1)C1CCCN1C(=O)C2Cc1ccccc1 (stereo unspecified)
[1]
  TGI: > 100 µM
[2]
  TGI: > 100 µM
[3]
  TGI: > 100 µM
[4]
  TGI: > 100 µM
[5]
  TGI: > 100 µM
[6]
  TGI: > 100 µM
[7]
  TGI: > 100 µM
[9]
  TGI: > 100 µM

## O=c1nc2n(-c3cccc(Cl)c3)c3ccc([N+](=O)[O-])cc3cc-2c(=O)[nH]1
[1]
  GI50: 1.53 µM
  TGI: 5.68 µM
[2]
  GI50: 2.88 µM
  TGI: 9.2 µM
[3]
  GI50: 9.77 µM
  TGI: > 25 µM
[4]
  GI50: 15 µM
  TGI: > 25 µM
[5]
  GI50: 7.94 µM
  TGI: > 25 µM
[7]
  GI50: 17.1 µM
  TGI: > 25 µM
[8]
  GI50: 6.73 µM
  TGI: > 25 µM
[9]
  GI50: 1.93 µM
  TGI: 9.52 µM
[10]
  GI50: 7.75 µM
  TGI: 24.7 µM

## C=CC1(C)CCC2C(=CCC3C2(C)CC(O)C(O)C3(C)COC2OC(CO)C(O)C(O)C2O)C1 (stereo unspecified)
[1]
  TGI: > 100 µM
[3]
  TGI: > 100 µM
[4]
  TGI: > 100 µM
[5]
  TGI: > 100 µM
[6]
  TGI: > 100 µM
[7]
  TGI: > 100 µM
[8]
  TGI: > 100 µM
[9]
  TGI: > 100 µM
[10]
  TGI: > 100 µM

## O=S1OC(c2ccccc2)(c2ccccc2)C(c2ccccc2)(c2ccccc2)O1
[1]
  TGI: > 100 µM
[2]
  TGI: > 100 µM
[3]
  TGI: > 100 µM
[4]
  TGI: > 100 µM
[5]
  TGI: > 100 µM
[6]
  TGI: > 100 µM
[7]
  TGI: > 100 µM
[9]
  TGI: > 100 µM
[10]
  TGI: > 100 µM

## O=C(O)c1ccc(N(/C=C/C(=O)C(F)(F)F)Cc2ccc(Cl)cc2)cc1
[1]
  GI50: 20.5 µM
  TGI: 54.8 µM
[2]
  GI50: 24.5 µM
  TGI: 65.3 µM
[3]
  GI50: > 100 µM
  TGI: > 100 µM
[4]
  GI50: 35.5 µM
  TGI: > 100 µM
[5]
  GI50: 36.7 µM
  TGI: > 100 µM
[8]
  GI50: 22.4 µM
  TGI: 62.1 µM
[9]
  GI50: 21.4 µM
  TGI: 51.8 µM
[10]
  GI50: 19.5 µM
  TGI: 82.4 µM

## COc1ccc(C2COc3c(ccc(OC)c3OC)C2=O)cc1OC (stereo unspecified)
[1]
  TGI: > 100 µM
[2]
  TGI: > 100 µM
[3]
  TGI: > 100 µM
[4]
  TGI: > 100 µM
[5]
  TGI: > 100 µM
[6]
  TGI: > 100 µM
[7]
  TGI: > 100 µM
[9]
  TGI: > 100 µM
[10]
  TGI: > 100 µM

## COc1nc(NC2OC(COC(C)=O)C(OC(C)=O)C(OC(C)=O)C2OC(C)=O)c(N=CC=Nc2c(NC3OC(COC(C)=O)C(OC(C)=O)C(OC(C)=O)C3OC(C)=O)nc(OC)[nH]c2=O)c(=O)[nH]1 (stereo unspecified)
[1]
  TGI: > 100 µM
[2]
  TGI: > 100 µM
[4]
  TGI: > 100 µM
[5]
  TGI: > 100 µM
[6]
  TGI: > 100 µM
[7]
  TGI: > 100 µM
[9]
  TGI: > 100 µM
[10]
  TGI: > 100 µM

## CC(=O)N1C/C(=C\c2ccccc2)C(=O)/C(=C/c2ccccc2)C1
[1]
  TGI: 5.9 µM
[2]
  TGI: 39 µM
[3]
  TGI: 40.2 µM
[4]
  TGI: > 54 µM
[5]
  TGI: 33.9 µM
[6]
  TGI: 40 µM
[7]
  TGI: 12.8 µM
[9]
  TGI: 9.01 µM

## CC(=O)/C(=C\c1ccc(Cl)cc1)c1ccccc1
[2]
  GI50: 0.179 µM
  TGI: > 100 µM
[3]
  GI50: 0.0845 µM
  TGI: 13.5 µM
[4]
  GI50: 0.0942 µM
  TGI: > 100 µM
[5]
  GI50: 0.141 µM
  TGI: 0.474 µM
[6]
  GI50: 43.2 µM
  TGI: > 100 µM
[7]
  GI50: 0.0501 µM
  TGI: > 100 µM
[8]
  GI50: 0.285 µM
  TGI: > 100 µM
[9]
  GI50: 0.123 µM
  TGI: 16.2 µM
[10]
  GI50: 0.12 µM
  TGI: > 26.2 µM
